Measurements as given in patent publication US20260365670A1, “EGFR INHIBITORS AND USES THEREOF” (DIZAL (JIANGSU) PHARMACEUTICAL CO., LTD., priority 2022, published 2026).
Read-outs that look alike come from different tables or passages of the source.

How the values were obtained:
PC-9 = test: Cell proliferation assay, PC-9 cells (CellTiter-Glo, 72 hours); format: cell-based; details: PC9 cells, CellTiter-Glo, read-out: PC9 GI50
Summary of the method: (§1)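 Growth over 72 h was quantified by CellTiter-Glo luminescence, normalised as (G3 − G0)/(DMSO G3 − G0), for PC-9 cells seeded at 500/well and EGFR-mutant Ba/F3 cells at 5000/well in RPMI1640. Compound concentration series added after overnight incubation; GI50 obtained from best-fit curves.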

EGFR[T790M/C797S/L858R] = target: T1, EGFR[T790M/C797S/L858R] (Homo sapiens, UniProt P00533, C797S/L858R/T790M); test: Inhibition of EGFR[T790M/C797S/L858R] biochemical enzymatic activity (HTRF); details: EGFR T790M-C797S-L858R, 1 mM ATP, 1 h, room temperature, read-out: IC50 (nM) @T790M- C797S - L858R
T1 construct: purchased Carna Bio
Summary of the method: (§2)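 Phosphorylation of TK Substrate-biotin (1 μM) was measured at 1 mM ATP over a 1 h room-temperature incubation with serially varied compound. Detection was by HTRF ratio and analysis by 4PL fit to IC50.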

[1] = target: T2, EGFR[T790M/C797S/d746-750] (Homo sapiens, UniProt P00533, C797S/DEL746-750/T790M); test: Inhibition of EGFR[T790M/C797S/d746-750] biochemical enzymatic activity (HTRF); details: EGFR T790M-C797S-Del19, 1 mM ATP, 1 h, room temperature, read-out: IC50 (nM) @T790M - C797S - Del19
T2 construct: purchased Carna Bio
Summary of the method: as §2

EGFR L858R/T790M = target: T3, EGFR L858R/T790M (Homo sapiens, UniProt P00533, L858R/T790M); test: Inhibition of EGFR L858R/T790M biochemical enzymatic activity (HTRF); details: EGFR L858R-T790M, 1 mM ATP, 1 h, room temperature, read-out: IC50 (nM) @L858R-T790M
T3 construct: purchased Carna Bio
Summary of the method: as §2

EGFR (C797S L858R) = target: T4, EGFR (C797S L858R) (Homo sapiens, UniProt P00533, C797S/L858R); test: Inhibition of EGFR (C797S L858R) biochemical enzymatic activity (HTRF); details: EGFR L858-C797S, 1 mM ATP, 1 h, room temperature, read-out: IC50 (nM) @L858-C797S
T4 construct: purchased signalchem
Summary of the method: as §2

EGFR (d746-750 C797S) = target: T5, EGFR (d746-750 C797S) (Homo sapiens, UniProt P00533, C797S/DEL746-750); test: Inhibition of EGFR (d746-750 C797S) biochemical enzymatic activity (HTRF); details: EGFR Del19-C797S, 1 mM ATP, 1 h, room temperature, read-out: IC50 (nM) @Del19-C797S
T5 construct: purchased signalchem
Summary of the method: as §2

A-431 = test: Cell proliferation GI50, A-431 cells (Table 6); format: cell-based
EGFR L858R = target: T6, EGFR L858R (Homo sapiens, UniProt P00533, L858R); test: Inhibition of EGFR L858R biochemical enzymatic activity (HTRF); details: 1 mM ATP, 1 h, room temperature, read-out: IC50 (nM) @L858R
T6 construct: purchased Carna Bio
Summary of the method: as §2

EGFR wild type = target: T7, EGFR wild type (Homo sapiens, UniProt P00533); test: Inhibition of EGFR wild type biochemical enzymatic activity (HTRF); details: EGFR WT, 1 mM ATP, 1 h, room temperature, read-out: IC50 (nM) @WT
T7 construct: purchased Carna Bio
Summary of the method: as §2

EGFR Exon19Del/T790M = target: T8, EGFR Exon19Del/T790M (Homo sapiens, UniProt P00533, DEL746-750/T790M); test: Inhibition of EGFR Exon19Del/T790M biochemical enzymatic activity (HTRF); details: EGFR Del19-T790M, 1 mM ATP, 1 h, room temperature, read-out: IC50 (nM) @Del19-T790M
T8 construct: purchased Carna Bio
Summary of the method: as §2

EGFR Exon19Del = target: T9, EGFR Exon19Del (Homo sapiens, UniProt P00533, DEL746-750); test: Inhibition of EGFR Exon19Del biochemical enzymatic activity (HTRF); details: EGFR Del19, 1 mM ATP, 1 h, room temperature, read-out: IC50 @Del19
T9 construct: purchased Carna Bio
Summary of the method: as §2

[2] = test system: Ba/F3 cells expressing EGFR mutations; test: Cell proliferation assay, Ba/F3 cells expressing EGFR mutations (CellTiter-Glo, 72 hours); format: cell-based; details: CellTiter-Glo
Summary of the method: as §1

[3] = BaF3 cells, EGFR DEL19-C797S, read-out: DEL19-C797S/BaF3 GI50
[4] = BaF3 cells, EGFR DEL19-T790-C797S, read-out: DEL19-T790-C797S/BaF3 GI50
[5] = BaF3 cells, EGFR L858R, read-out: L858R/BaF3 GI50
[6] = BaF3 cells, EGFR L858R-C797S, read-out: L858R-C797S/BaF3 GI50
[7] = BaF3 cells, EGFR L858R-T790-C797S, read-out: L858R-T790-C797S/BaF3 GI50
[8] = BaF3 cells, EGFR L858R-T790M, read-out: L858R-T790M/BaF3 GI50
[9] = EGFR DEL19-T790M, read-out: DEL19-T790M GI50
[10] = Homo sapiens, A-431, A-431 cells
[11] = Mus musculus, BaF3, 72 h, BaF3 cells, EGFR DEL19-C797S, read-out: DEL19-C797S/BaF3 GI50
[12] = Mus musculus, BaF3, 72 h, BaF3 cells, EGFR DEL19-T790-C797S, read-out: DEL19-T790-C797S/BaF3 GI50
[13] = Mus musculus, BaF3, 72 h, BaF3 cells, EGFR L858R, read-out: L858R/BaF3 GI50
[14] = Mus musculus, BaF3, 72 h, BaF3 cells, EGFR L858R-C797S, read-out: L858R-C797S/BaF3 GI50
[15] = Mus musculus, BaF3, 72 h, BaF3 cells, EGFR L858R-T790-C797S, read-out: L858R-T790-C797S/BaF3 GI50
[16] = Mus musculus, BaF3, 72 h, BaF3 cells, EGFR L858R-T790M, read-out: L858R-T790M/BaF3 GI50
[17] = Mus musculus, BaF3, 72 h, EGFR DEL19-T790M, read-out: DEL19-T790M GI50

T8 sequence (P00533 with tags, fused parts or gaps DEL746-750/T790M limits assumed): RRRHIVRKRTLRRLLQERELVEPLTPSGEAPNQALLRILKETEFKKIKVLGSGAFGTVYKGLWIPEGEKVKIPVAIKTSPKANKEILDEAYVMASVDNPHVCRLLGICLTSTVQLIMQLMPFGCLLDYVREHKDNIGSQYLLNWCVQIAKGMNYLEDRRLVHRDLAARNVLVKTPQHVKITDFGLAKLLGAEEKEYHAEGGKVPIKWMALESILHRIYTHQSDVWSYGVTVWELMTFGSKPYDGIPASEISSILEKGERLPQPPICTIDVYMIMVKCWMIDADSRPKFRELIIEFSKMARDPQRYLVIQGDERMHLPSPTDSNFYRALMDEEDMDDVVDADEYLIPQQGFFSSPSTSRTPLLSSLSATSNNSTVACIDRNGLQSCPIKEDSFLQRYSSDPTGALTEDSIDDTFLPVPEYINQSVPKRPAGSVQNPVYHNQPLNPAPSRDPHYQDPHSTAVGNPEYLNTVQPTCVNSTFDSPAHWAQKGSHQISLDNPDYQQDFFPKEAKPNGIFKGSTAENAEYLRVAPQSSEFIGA
T6 sequence (P00533 25-1210 L858R): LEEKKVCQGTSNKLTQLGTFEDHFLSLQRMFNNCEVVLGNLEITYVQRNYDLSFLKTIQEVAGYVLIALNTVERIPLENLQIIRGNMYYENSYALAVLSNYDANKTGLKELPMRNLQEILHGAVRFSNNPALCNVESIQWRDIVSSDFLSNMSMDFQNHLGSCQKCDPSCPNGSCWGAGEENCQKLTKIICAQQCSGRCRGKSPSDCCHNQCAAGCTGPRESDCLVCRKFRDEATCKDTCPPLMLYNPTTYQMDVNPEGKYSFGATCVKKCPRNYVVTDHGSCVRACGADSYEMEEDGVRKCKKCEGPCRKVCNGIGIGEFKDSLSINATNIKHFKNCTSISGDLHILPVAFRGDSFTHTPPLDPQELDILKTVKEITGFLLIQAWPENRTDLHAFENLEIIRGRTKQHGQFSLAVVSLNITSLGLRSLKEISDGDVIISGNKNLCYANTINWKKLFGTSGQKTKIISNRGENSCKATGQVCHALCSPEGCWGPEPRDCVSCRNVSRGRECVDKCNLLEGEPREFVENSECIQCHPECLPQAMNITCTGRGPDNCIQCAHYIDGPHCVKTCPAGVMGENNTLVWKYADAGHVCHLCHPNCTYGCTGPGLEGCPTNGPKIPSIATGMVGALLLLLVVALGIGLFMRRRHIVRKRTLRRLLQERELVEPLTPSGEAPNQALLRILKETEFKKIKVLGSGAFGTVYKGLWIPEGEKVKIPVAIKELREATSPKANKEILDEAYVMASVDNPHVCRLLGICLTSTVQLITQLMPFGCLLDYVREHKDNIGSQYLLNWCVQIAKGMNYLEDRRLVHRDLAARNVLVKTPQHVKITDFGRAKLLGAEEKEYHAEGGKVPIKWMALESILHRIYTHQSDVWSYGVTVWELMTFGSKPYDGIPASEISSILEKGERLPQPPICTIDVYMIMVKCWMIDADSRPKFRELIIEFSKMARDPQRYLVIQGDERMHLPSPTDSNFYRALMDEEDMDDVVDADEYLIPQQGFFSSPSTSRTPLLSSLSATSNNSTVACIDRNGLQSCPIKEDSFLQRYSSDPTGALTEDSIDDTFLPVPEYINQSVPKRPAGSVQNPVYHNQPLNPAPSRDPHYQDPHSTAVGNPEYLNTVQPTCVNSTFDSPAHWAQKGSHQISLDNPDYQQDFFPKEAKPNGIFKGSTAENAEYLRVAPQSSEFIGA
T2 sequence (P00533 with tags, fused parts or gaps DEL746-750/T790M/C797S limits assumed): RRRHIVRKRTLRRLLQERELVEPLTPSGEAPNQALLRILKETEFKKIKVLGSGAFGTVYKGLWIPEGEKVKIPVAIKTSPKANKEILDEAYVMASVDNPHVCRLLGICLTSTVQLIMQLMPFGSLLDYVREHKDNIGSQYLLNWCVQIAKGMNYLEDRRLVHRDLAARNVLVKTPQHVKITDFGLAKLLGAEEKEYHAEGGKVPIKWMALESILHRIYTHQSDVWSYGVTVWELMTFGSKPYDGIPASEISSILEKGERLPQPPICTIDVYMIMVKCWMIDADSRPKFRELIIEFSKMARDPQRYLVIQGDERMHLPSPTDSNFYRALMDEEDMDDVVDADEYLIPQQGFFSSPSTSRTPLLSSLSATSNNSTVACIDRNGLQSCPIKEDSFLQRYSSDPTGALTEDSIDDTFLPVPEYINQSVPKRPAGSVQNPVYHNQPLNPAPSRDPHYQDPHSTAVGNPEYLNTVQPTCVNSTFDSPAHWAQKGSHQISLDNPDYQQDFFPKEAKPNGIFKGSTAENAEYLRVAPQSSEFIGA
T1 sequence (P00533 25-1210 T790M/C797S/L858R): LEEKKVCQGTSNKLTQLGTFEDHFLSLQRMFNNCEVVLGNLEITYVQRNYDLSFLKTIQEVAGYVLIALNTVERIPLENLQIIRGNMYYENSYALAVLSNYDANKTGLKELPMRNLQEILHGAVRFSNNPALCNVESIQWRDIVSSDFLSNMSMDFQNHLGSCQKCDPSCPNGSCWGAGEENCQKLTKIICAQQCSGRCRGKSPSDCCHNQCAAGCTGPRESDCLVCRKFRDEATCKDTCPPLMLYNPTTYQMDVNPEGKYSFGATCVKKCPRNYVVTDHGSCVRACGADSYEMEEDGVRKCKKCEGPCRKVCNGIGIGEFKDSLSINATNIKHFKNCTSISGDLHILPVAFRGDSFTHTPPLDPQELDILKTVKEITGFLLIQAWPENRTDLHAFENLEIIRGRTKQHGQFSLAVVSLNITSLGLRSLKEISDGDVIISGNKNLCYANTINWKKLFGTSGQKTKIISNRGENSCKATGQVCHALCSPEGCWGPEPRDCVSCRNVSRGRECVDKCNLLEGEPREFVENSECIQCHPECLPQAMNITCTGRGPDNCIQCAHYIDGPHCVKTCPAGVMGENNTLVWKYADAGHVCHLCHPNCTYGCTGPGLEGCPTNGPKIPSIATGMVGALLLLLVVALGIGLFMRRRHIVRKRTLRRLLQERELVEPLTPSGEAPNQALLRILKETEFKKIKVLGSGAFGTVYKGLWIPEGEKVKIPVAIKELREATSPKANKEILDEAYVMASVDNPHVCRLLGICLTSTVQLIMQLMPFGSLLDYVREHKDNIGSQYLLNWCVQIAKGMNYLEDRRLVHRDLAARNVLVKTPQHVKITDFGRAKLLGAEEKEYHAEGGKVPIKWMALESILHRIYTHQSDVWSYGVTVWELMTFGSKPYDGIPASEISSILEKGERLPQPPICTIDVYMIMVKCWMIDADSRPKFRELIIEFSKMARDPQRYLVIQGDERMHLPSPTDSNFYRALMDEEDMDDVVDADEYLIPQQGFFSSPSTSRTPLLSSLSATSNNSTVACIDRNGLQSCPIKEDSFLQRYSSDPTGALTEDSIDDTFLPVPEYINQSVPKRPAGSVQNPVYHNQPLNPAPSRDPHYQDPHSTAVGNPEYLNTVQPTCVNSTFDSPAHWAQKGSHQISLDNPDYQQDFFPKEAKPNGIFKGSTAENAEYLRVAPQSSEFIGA
T7 sequence (P00533 25-1210): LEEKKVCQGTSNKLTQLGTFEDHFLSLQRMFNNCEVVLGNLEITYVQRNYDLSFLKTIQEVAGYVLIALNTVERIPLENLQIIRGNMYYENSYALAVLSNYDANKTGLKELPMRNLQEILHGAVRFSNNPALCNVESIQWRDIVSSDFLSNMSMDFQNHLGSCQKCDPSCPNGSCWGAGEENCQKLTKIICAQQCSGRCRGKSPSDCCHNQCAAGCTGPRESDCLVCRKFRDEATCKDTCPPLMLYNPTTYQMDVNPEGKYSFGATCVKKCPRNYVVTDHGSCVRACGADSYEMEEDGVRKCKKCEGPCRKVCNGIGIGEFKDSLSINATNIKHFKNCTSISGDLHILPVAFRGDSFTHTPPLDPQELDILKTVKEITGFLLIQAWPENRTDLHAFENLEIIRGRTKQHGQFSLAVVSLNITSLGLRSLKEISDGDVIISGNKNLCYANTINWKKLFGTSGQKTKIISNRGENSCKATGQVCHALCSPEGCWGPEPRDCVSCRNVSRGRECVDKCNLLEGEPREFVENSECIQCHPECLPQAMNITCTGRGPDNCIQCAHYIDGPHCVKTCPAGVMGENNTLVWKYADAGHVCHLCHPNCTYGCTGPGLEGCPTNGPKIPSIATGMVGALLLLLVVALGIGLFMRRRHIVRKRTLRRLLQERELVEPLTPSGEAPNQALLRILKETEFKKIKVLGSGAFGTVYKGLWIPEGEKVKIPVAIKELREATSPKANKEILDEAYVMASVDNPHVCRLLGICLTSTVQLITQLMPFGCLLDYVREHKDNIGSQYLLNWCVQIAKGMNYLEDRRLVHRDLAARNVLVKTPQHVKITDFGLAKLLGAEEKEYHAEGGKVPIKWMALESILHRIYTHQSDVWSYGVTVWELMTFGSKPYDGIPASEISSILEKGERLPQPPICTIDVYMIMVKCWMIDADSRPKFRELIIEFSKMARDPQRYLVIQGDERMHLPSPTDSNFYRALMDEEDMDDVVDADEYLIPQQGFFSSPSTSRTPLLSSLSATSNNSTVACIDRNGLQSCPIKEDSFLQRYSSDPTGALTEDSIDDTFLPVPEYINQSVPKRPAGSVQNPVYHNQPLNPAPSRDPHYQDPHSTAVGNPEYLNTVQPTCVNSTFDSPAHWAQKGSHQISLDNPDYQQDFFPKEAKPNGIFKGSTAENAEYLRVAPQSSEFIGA

Compound	GI50 (PC-9)	IC50 (EGFR[T790M/C797S/L858R])	IC50 [1]	IC50 (EGFR L858R/T790M)	IC50 (EGFR (C797S L858R))	IC50 (EGFR (d746-750 C797S))	GI50 (A-431; A-431 cells)	IC50 (EGFR L858R)	IC50 (EGFR wild type)	IC50 (EGFR Exon19Del/T790M)	IC50 (EGFR Exon19Del)	GI50 [2, 3]	GI50 [2, 4]	GI50 [2, 5]	GI50 [2, 6]	GI50 [2, 7]	GI50 [2, 8]	GI50 [2, 9]	GI50 (A-431; [10])	other results
C[C@@H]1CCCOc2c(cnn2C)-c2cc(cn(C)c2=O)C(=O)Nc2nc3ccc(N4CCC(N5CCOCC5)C4)cc3n2C1 (stereo partly drawn) [Example A28]	–	100 nM	21 nM	137 nM	93 nM	14 nM	–	174 nM	4140 nM	22 nM	21 nM	–	–	–	–	–	–	–	452 nM	GI50 (PC-9; Homo sapiens, PC-9, 72 h): 38 nM; GI50 [2, 11]: 2.4 nM; GI50 [2, 12]: 4.7 nM; GI50 [2, 13]: 4.5 nM; GI50 [2, 14]: 16 nM; GI50 [2, 15]: 3.6 nM; GI50 [2, 16]: 9.4 nM; GI50 [2, 17]: 6.7 nM
Cn1ncc2c1OCCN1CC3CCC(C3)(C1)n1c(nc3ccc(N4CCN(C5CC5)CC4)cc31)NC(=O)c1cc-2c(=O)n(C)c1 (single isomer, unassigned) [Example A83A]	766 nM	> 5000 nM	> 5000 nM	> 5000 nM	2600 nM	577 nM	7760 nM	2020 nM	> 5000 nM	> 5000 nM	428 nM	176 nM	789 nM	993 nM	468 nM	1090 nM	1130 nM	585 nM	–	–
CN1CCN(c2ccc3c(c2)nc2n3C34CCC(CN(CCOc5c(cnn5C)-c5cc(cn(C)c5=O)C(=O)N2)C3)C4)CC1 (stereo not drawn) [Example A60B, 15,21-dimethyl-6-(4-methylpiperazin-1-yl)-23-oxa-2,9,11,15,20,21,26-heptaazaheptacyclo[24.4.1.1^{1,28}.1^{13,17}.0^{2,10}.0^{3,8}.0^{18,22}]tritriaconta-3,5,7,9,13,17(33),18(22),19-octaene-12,16-dione]	15 nM	44 nM	0.81 nM	49 nM	65 nM	1.7 nM	1340 nM	135 nM	4480 nM	0.82 nM	3.2 nM	1.4 nM	4.4 nM	21 nM	15 nM	8.4 nM	53 nM	6.9 nM	–	–

Now those with a lower IC50 (EGFR[T790M/C797S/L858R]), led by results:

GI50 (PC-9)	IC50 (EGFR[T790M/C797S/L858R])	IC50 [1]	IC50 (EGFR L858R/T790M)	IC50 (EGFR (C797S L858R))	IC50 (EGFR (d746-750 C797S))	GI50 (A-431; A-431 cells)	IC50 (EGFR L858R)	IC50 (EGFR wild type)	IC50 (EGFR Exon19Del/T790M)	IC50 (EGFR Exon19Del)	GI50 [2, 3]	GI50 [2, 4]	GI50 [2, 5]	GI50 [2, 6]	GI50 [2, 7]	GI50 [2, 8]	GI50 [2, 9]	GI50 (A-431; [10])	Compound	other results
30 nM	9.7 nM	5.2 nM	9.7 nM	30 nM	4.5 nM	1980 nM	45 nM	289 nM	6.3 nM	8.9 nM	0.77 nM	8.5 nM	3.3 nM	7.2 nM	5.4 nM	14 nM	5 nM	–	Cn1ncc2c1OCCN1CC3CCC(C3)(C1)n1c(nc3ccc(N4CCC(N5CC(F)C5)C4)cc31)NC(=O)c1cc-2c(=O)n(C)c1 (single isomer, unassigned) [Example A94B2, 5-[3-(3-Fluoroazetidin-1-yl)pyrrolidin-1-yl]-15,21-dimethyl-23-oxa-2,9,11,15,20,21,26-heptaazaheptacyclo[24.4.1.1^{1,28}.1^{13,17}.0^{2,10}.0^{3,8}.0^{18,22}]tritriaconta-3,5,7,9,13,17(33),18(22),19-octaene-12,16-dione]	–
11 nM	6.7 nM	5.1 nM	7.8 nM	8.8 nM	3.1 nM	6140 nM	7.2 nM	9.3 nM	6.2 nM	3.2 nM	0.55 nM	1 nM	1.2 nM	3 nM	1 nM	4.2 nM	1 nM	–	CN1CCN(C2CCN(c3ccc4nc5n(c4c3)C34CCC(CN(CCOc6c(cnn6C)-c6cc(cn(C)c6=O)C(=O)N5)C3)C4)C2)CC1 (single isomer, unassigned) [Example A80B1, 15,21-Dimethyl-5-[3-(4-methylpiperazin-1-yl)pyrrolidin-1-yl]-23-oxa-2,9,11,15,20,21,26-heptaazaheptacyclo[24.4.1.1^{1,28}.1^{13,17}.0^{2,10}.0^{3,8}.0^{18,22}]tritriaconta-3,5,7,9,13,17(33),18(22),19-octaene-12,16-dione]	–
–	4.9 nM	4.2 nM	9.5 nM	20 nM	2.5 nM	–	46 nM	1130 nM	4.2 nM	4.5 nM	–	–	–	–	–	–	–	200 nM	C[C@@H]1CCCOc2c(cnn2C)-c2cc(cn(C)c2=O)C(=O)Nc2nc3ccc(N4CC5(CN(C)CCO5)C4)cc3n2C1 [Example A47]	GI50 (PC-9; Homo sapiens, PC-9, 72 h): 7 nM; GI50 [2, 11]: 1.7 nM; GI50 [2, 12]: 9.7 nM; GI50 [2, 13]: 4 nM; GI50 [2, 14]: 3.2 nM; GI50 [2, 15]: 3.4 nM; GI50 [2, 16]: 17 nM; GI50 [2, 17]: 12 nM
20 nM	2.3 nM	2.7 nM	2.8 nM	5 nM	0.96 nM	1190 nM	5 nM	83 nM	2.7 nM	0.96 nM	0.7 nM	10 nM	13 nM	8.9 nM	15 nM	25 nM	10 nM	–	Cn1ncc2c1OCCN1CC3CCC(C3)(C1)n1c(nc3ccc(N4CCN(C5CC5)CC4)cc31)NC(=O)c1cc-2c(=O)n(C)c1 (single isomer, unassigned) [Example A83B]	–
2.1 nM	1.3 nM	2.2 nM	1.8 nM	2 nM	0.92 nM	–	2.4 nM	5.2 nM	2.4 nM	1.8 nM	0.51 nM	0.58 nM	0.88 nM	1.9 nM	0.51 nM	1.6 nM	0.51 nM	731 nM	CN(C)CC1(F)CN(c2ccc3nc4n(c3c2)C23CCC(CN(CCOc5c(cnn5C)-c5cc(cn(C)c5=O)C(=O)N4)C2)C3)C1 (single isomer, unassigned) [Example A72B]	–
